According to patent US11999715B2, “ASK1 inhibiting agents” (BIOGEN MA INC., priority 2018, dated 2024):

How the values were obtained:
[1] = biological target: T1, ASK1 T838 auto phosphorylation (Homo sapiens, UniProt Q99683); assay: ASK1 (AUTO PHOS T838) assay, MSD format, in HEK-293T cells transfected with ASK1-V5; type: cell-based; conditions: ASK1 T838 auto phosphorylation in HEK-293T cells, 1 hr compound incubation; class symbols
T1 sequence (Q99683 1-1374): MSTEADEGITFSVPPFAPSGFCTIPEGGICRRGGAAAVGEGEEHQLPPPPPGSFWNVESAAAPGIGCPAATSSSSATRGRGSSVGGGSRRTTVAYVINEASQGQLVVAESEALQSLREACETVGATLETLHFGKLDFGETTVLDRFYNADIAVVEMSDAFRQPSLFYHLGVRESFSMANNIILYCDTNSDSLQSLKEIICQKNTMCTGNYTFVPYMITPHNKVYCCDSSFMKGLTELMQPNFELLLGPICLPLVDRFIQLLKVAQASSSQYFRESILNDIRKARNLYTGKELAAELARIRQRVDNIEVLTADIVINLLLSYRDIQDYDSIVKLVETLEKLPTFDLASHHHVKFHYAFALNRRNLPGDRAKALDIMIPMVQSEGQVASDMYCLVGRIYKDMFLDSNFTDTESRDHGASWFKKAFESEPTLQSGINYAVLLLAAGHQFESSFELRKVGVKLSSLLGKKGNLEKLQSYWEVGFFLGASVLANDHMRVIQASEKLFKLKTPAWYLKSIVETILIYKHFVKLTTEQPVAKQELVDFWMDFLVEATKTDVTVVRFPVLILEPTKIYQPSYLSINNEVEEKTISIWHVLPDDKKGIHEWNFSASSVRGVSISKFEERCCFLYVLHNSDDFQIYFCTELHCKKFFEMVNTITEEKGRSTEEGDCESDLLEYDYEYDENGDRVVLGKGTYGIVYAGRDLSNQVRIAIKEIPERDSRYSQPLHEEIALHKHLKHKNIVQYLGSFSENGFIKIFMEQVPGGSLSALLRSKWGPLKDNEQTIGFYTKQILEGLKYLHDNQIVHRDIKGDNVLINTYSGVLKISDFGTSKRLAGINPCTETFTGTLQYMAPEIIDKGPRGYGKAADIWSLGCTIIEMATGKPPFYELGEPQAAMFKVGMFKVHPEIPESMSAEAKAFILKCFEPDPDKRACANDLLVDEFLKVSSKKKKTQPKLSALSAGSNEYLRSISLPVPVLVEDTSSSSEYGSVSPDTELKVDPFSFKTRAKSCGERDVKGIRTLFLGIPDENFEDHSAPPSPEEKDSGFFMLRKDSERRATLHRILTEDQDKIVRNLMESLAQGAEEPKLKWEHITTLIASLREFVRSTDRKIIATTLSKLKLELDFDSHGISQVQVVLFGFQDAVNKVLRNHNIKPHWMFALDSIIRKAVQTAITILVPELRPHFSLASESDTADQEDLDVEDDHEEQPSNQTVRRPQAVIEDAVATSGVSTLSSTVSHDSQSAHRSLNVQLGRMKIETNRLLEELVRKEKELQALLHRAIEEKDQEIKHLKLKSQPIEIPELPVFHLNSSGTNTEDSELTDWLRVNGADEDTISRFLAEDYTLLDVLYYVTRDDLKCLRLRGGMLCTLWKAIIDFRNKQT
Method: Example 112: Brief Description of ASK1(AUTO PHOS T838) Assay ASK1 T838 auto phosphorylation was measured in HEK-293T cells using MSD assay format. HEK 293T cells were seeded in 15 cm plates at a density of 18 million cells and 20 mL DMEM with 10% FBS, Pen/Strep media. The plates were incubated at 37° C. overnight. Media on plates was changed to OPTI-MEM, serum free media and cells were transfected with 9 μg of ASK1-V5 tagged full length plasmid using Lipofectamine 2000 (Invitrogen) and the plates were incubated at 37° C. overnight. Cells were trypsinized, counted on Nexcellometer and plated into 96 well tissue culture plates with 100,000 cells/well and 200 μL media. Cells were incubated for 4 hr at 37° C. then ASK1 compounds were added using a HP 300e. Compounds were tested at 20 μM with 3 fold, 10 point dilution points then incubated for 1 hr at 37° C. A lysis buffer (Cell Signaling) was prepared with protease and phosphatase inhibitor and maintained at 4° C. until use. Media from cells was discarded and 120 μL of cold lysis buffer was added to the cells, the plate was shaken 4° C. for 1 hr. Lysate was mixed using Apricot liquid handler; aspirating up and down 16 times at high speed using 50 μL volume. […] Plates were then incubated on a plate shaker overnight at 4° C. Plates were washed 3× with MSD wash buffer and 50 μL of rabbit anti-pASK1 T838 antibody was added to the wells and incubated for 2 hr at room temperature on a plate shaker. Plates were then washed and 50 μL of goat anti-rabbit sulfa-tag (1:500 dilution) was added to wells, and incubated for 1 hr at room temperature on a plate shaker. […] Plates were immediately read on a MSD Instrument Reader where chemoluminescence signal was measured. Data was analyzed using Graph Pad or Genedata, the data was normalized and plotted, % activity versus log of compound concentration. The IC50 values were obtained from a 4 parameter fit. The compounds described herein were tested for in the above cell-based assay.

ASK1/MAP3K5 = biological target: T2, ASK1/MAP3K5 (Homo sapiens, UniProt Q99683); assay: ASK1/MAP3K5 kinase assay by Reaction Biology Corp. (headed ASK1 TR-FRET Assay); type: biochemical; conditions: 20 μM myelin basic protein, 10 μM ATP
T2 sequence (Q99683 1-1374): T1 sequence (Q99683 1-1374)
Method: Example 111: Brief Description of ASK1 TR-FRET Assay The protein kinase inhibitory activity of the compounds described herein were tested using the ASK1/MAP3K5 assay by Reaction Biology Corp. (Malvern, PA). The assay procedure follows (and is also available on the Reaction Biology Corp. website). Base Reaction Buffer: 20 mM Hepes (pH 7.5), 10 mM MgCl2, 1 mM EGTA, 0.02% Brij35, 0.02 mg/mL BSA, 0.1 mM Na3VO4, 2 mM DTT, 1% DMSO; Substrate: 20 μM of myelin basic protein (MBP) and 10 μM ATP; Protein kinase: ASK1/MAP3K5. Reaction Procedure: • 1. Prepare indicated substrate in freshly prepared Base Reaction Buffer. • 2. Deliver any required cofactors to the substrate solution. • 3. Deliver indicated kinase into the substrate solution and gently mix. • 4. Deliver compounds in DMSO into the kinase reaction mixture by Acoustic; technology (Echo550; nanoliter range), incubate for 20 minutes at room temperature. • 5. Deliver ^33P-ATP (specific activity 10 μCi/μL) into the reaction mixture to initiate the reaction. • 6. Incubate kinase reaction for 2 hours at room temperature. • 7. Reactions are spotted onto P81 ion exchange paper. • 8. Detect kinase activity by filter-binding method.

| IC50 [1] [nM] | IC50 (ASK1/MAP3K5; class symbols) [nM] | IC50 (ASK1/MAP3K5; class given in words) [nM] | SMILES |
| --- | --- | --- | --- |
| ≤ 1000 | ≤ 100 | – | COc1nn(CC(C)C)cc1C(=O)Nc1cccc(-c2nncn2C(C)C(F)(F)F)n1 (stereo not shown) [Example 43, 1-Isobutyl-3-methoxy-N-(6-(4-(1,1,1-trifluoropropan-2-yl)-4H-1,2,4-triazol-3-yl)pyridin-2-yl)-1H-pyrazole-4-carboxamide] |
| ≤ 1000 | ≤ 100 | – | COc1nn(Cc2ccccn2)cc1C(=O)Nc1cccc(-c2nncn2C(C)C)n1 [Example 44, N-(6-(4-Isopropyl-4H-1,2,4-triazol-3-yl)pyridin-2-yl)-3-methoxy-1-(pyridin-2-ylmethyl)-1H-pyrazole-4-carboxamide] |
| ≤ 1000 | ≤ 100 | – | COc1nn(CCN(C)C)cc1C(=O)Nc1cccc(-c2nncn2C(C)C)n1 [Example 45, 1-(2-(Dimethylamino)ethyl)-N-(6-(4-isopropyl-4H-1,2,4-triazol-3-yl)pyridin-2-yl)-3-methoxy-1H-pyrazole-4-carboxamide] |
| ≤ 1000 | ≤ 100 | – | COc1nn(CCN2CCOCC2)cc1C(=O)Nc1cccc(-c2nncn2C(C)C)n1 [Example 46, N-(6-(4-Isopropyl-4H-1,2,4-triazol-3-yl)pyridin-2-yl)-3-methoxy-1-(2-morpholinoethyl)-1H-pyrazole-4-carboxamide] |
| ≤ 1000 | ≤ 100 | – | COc1nn(CC2CC2)cc1C(=O)Nc1cccc(-c2nncn2[C@@H](C)C(F)(F)F)n1 [Example 48, (S)-1-(Cyclopropylmethyl)-3-methoxy-N-(6-(4-(1,1,1-trifluoropropan-2-yl)-4H-1,2,4-triazol-3-yl)pyridin-2-yl)-1H-pyrazole-4-carboxamide] |
| > 10000 | – | ≥ 10000 | COc1nn(C)cc1C(=O)Nc1cccc(-c2nncn2C2(C)COC2)n1 [Example 49, 3-Methoxy-1-methyl-N-(6-(4-(3-methyloxetan-3-yl)-4H-1,2,4-triazol-3-yl)pyridin-2-yl)-1H-pyrazole-4-carboxamide] |
| ≤ 1000 | ≤ 100 | – | CC(C)n1cnnc1-c1cccc(NC(=O)c2cn(CC3CC3)nc2C(F)F)n1 [Example 50, 1-(Cyclopropylmethyl)-3-(difluoromethyl)-N-(6-(4-isopropyl-4H-1,2,4-triazol-3-yl)pyridin-2-yl)-1H-pyrazole-4-carboxamide] |
| ≤ 1000 | ≤ 100 | – | COCCn1cc(C(=O)Nc2cccc(-c3nncn3[C@@H](C)C(F)(F)F)n2)c(C(F)F)n1 [Example 51, (S)-3-(Difluoromethyl)-1-(2-methoxyethyl)-N-(6-(4-(1,1,1-trifluoropropan-2-yl)-4H-1,2,4-triazol-3-yl)pyridin-2-yl)-1H-pyrazole-4-carboxamide] |
| ≤ 1000 | ≤ 100 | – | COCCn1cc(C(=O)Nc2cccc(-c3nncn3[C@@H](C)C(F)(F)F)n2)c(OC)n1 [Example 52, (S)-3-Methoxy-1-(2-methoxyethyl)-N-(6-(4-(1,1,1-trifluoropropan-2-yl)-4H-1,2,4-triazol-3-yl)pyridin-2-yl)-1H-pyrazole-4-carboxamide] |
| ≤ 1000 | 100 to 1000 | – | COCCn1cc(C(=O)Nc2cccc(-c3nncn3[C@H](C)C(F)(F)F)n2)c(OC)n1 [Example 53, (R)-3-Methoxy-1-(2-methoxyethyl)-N-(6-(4-(1,1,1-trifluoropropan-2-yl)-4H-1,2,4-triazol-3-yl)pyridin-2-yl)-1H-pyrazole-4-carboxamide] |
| ≤ 1000 | ≤ 100 | – | COCCn1cc(C(=O)Nc2cccc(-c3nncn3C3CC3)n2)c(OC)n1 [Example 54, N-(6-(4-Cyclopropyl-4H-1,2,4-triazol-3-yl)pyridin-2-yl)-3-methoxy-1-(2-methoxyethyl)-1H-pyrazole-4-carboxamide] |
| ≤ 1000 | ≤ 100 | – | C=CCn1cc(C(=O)Nc2cccc(-c3nncn3C(C)C)n2)c(OC)n1 [Example 55, 1-Allyl-N-(6-(4-isopropyl-4H-1,2,4-triazol-3-yl)pyridin-2-yl)-3-methoxy-1H-pyrazole-4-carboxamide] |
| ≤ 1000 | ≤ 100 | – | C=CCn1cc(C(=O)Nc2cccc(-c3nncn3[C@@H](C)C(F)(F)F)n2)c(OC)n1 [Example 57, (S)-1-Allyl-3-methoxy-N-(6-(4-(1,1,1-trifluoropropan-2-yl)-4H-1,2,4-triazol-3-yl)pyridin-2-yl)-1H-pyrazole-4-carboxamide] |
| ≤ 1000 | ≤ 100 | – | CCCn1cc(C(=O)Nc2cccc(-c3nncn3C(C)C(F)(F)F)n2)c(OC)n1 (stereo not shown) [Example 59, 3-Methoxy-1-propyl-N-(6-(4-(1,1,1-trifluoropropan-2-yl)-4H-1,2,4-triazol-3-yl)pyridin-2-yl)-1H-pyrazole-4-carboxamide] |
| ≤ 1000 | ≤ 100 | – | COc1nn(-c2cc(C#N)ccn2)cc1C(=O)Nc1cccc(-c2nncn2C(C)C)n1 [Example 65, 1-(4-Cyanopyridin-2-yl)-N-(6-(4-isopropyl-4H-1,2,4-triazol-3-yl)pyridin-2-yl)-3-methoxy-1H-pyrazole-4-carboxamide] |
| ≤ 1000 | ≤ 100 | – | COc1nn(-c2cncc(C)c2)cc1C(=O)Nc1cccc(-c2nncn2C(C)C)n1 [Example 67, N-(6-(4-Isopropyl-4H-1,2,4-triazol-3-yl)pyridin-2-yl)-3-methoxy-1-(5-methylpyridin-3-yl)-1H-pyrazole-4-carboxamide] |
| ≤ 1000 | ≤ 100 | – | COc1nn(-c2cncc(C#N)c2)cc1C(=O)Nc1cccc(-c2nncn2C(C)C)n1 [Example 69, 1-(5-Cyanopyridin-3-yl)-N-(6-(4-isopropyl-4H-1,2,4-triazol-3-yl)pyridin-2-yl)-3-methoxy-1H-pyrazole-4-carboxamide] |
